Assay results reported in BigSolDB 2.1.

COc1cc(/C=C/C(=O)O)cc(OC)c1O
solubility (mole fraction)
Details	in DMSO	in ethanol	in ethyl acetate	in ethylene glycol	in isopropanol	in n-butanol	in propylene glycol	in sec-butanol	in transcutol	in water
298.15 K	0.148	0.012	0.00532	0.0059	0.00213	0.00355	0.00452	0.00409	0.0298	6.22e-05
303.15 K	0.15	0.013	0.00627	0.00663	0.00222	0.00429	0.0053	0.00486	0.0324	8.11e-05
308.15 K	0.153	0.0141	0.00764	0.00748	0.00234	0.00529	0.00607	0.00559	0.0353	0.000113
313.15 K	0.156	0.0152	0.00935	0.00843	0.00245	0.00631	0.00708	0.00663	0.0383	0.000146
318.15 K	0.159	0.0164	0.0109	0.00934	0.00257	0.00729	0.00811	0.00761	0.0412	0.000188

Details	solubility (mole fraction)
in PEG-400, 298.15 K	0.0558
in PEG-400, 303.15 K	0.0616
in PEG-400, 308.15 K	0.0681
in PEG-400, 313.15 K	0.0748
in PEG-400, 318.15 K	0.0834
